Several values for one entry are separate records, joined by “and”; a condition that tells them apart may be missing. Equal values may be shown once.
Test system: Rh18 complex spheroid viability, percent test/control
Assay: Anticancer human tumor Rh18 cell line growth inhibition [Asc];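 also: spheroids exposed to compound for 7 days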;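 as to viability, T/C: 100% = DMSO vehicle control wells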
Conditions: for viability, T/C: stronger effect = lower value
How it was run: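 Tumor cells were grown as multicellular spheroids with stromal HUVEC and mesenchymal stem cells and treated singly or in combination. Concentrations fell in half-log steps from the clinical Cmax, or from 10 microM where none was known.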

[1] = curve of first compound, second compound 0.1 µM
[2] = curve of first compound, second compound 0.316 µM
[3] = curve of first compound, second compound 1 µM
[4] = second compound 0.1 µM, first compound 0.000316 µM
[5] = second compound 0.1 µM, first compound 0.001 µM
[6] = second compound 0.1 µM, first compound 0.00316 µM
[7] = second compound 0.1 µM, first compound 0.01 µM
[8] = second compound 0.1 µM, first compound 0.0316 µM
[9] = second compound 0.1 µM, first compound 0.1 µM
[10] = second compound 0.316 µM, first compound 0.000316 µM
[11] = second compound 0.316 µM, first compound 0.001 µM
[12] = second compound 0.316 µM, first compound 0.00316 µM
[13] = second compound 0.316 µM, first compound 0.01 µM
[14] = second compound 0.316 µM, first compound 0.0316 µM
[15] = second compound 0.316 µM, first compound 0.1 µM
[16] = second compound 1 µM, first compound 0.000316 µM
[17] = second compound 1 µM, first compound 0.001 µM
[18] = second compound 1 µM, first compound 0.00316 µM
[19] = second compound 1 µM, first compound 0.01 µM
[20] = second compound 1 µM, first compound 0.0316 µM
[21] = second compound 1 µM, first compound 0.1 µM

With `C#Cc1c(F)ccc2cc(O)cc(-c3ncc4c(N5CC6CCC(C5)N6)nc(OCC56CCCN5CC(F)C6)nc4c3F)c12` (stereo not drawn) + CCN1C(C(=O)NC23CCC(C(=O)O)(CC2)CC3)C(c2cccc(Cl)c2F)C2(C(=O)Nc3cc(Cl)ccc32)C12CCCCC2 the IC50 (curve of first compound, second compound 0.03 µM) was < 31.6 nM, the IC50 (curve of first compound, second compound 0.0949 µM) was < 31.6 nM and the IC50 (curve of first compound, second compound 0.3 µM) was < 31.6 nM. For the same compound, the IC50 (curve of first compound, second compound 0.949 µM) was < 31.6 nM, the IC50 (curve of first compound, second compound 3 µM) was < 31.6 nM and the viability, T/C (second compound 0.03 µM, first compound 0.0316 µM) was 42.7%. It also gave a viability, T/C (second compound 0.03 µM, first compound 0.1 µM) of 45.1%, a viability, T/C (second compound 0.03 µM, first compound 0.316 µM) of 43.9% and a viability, T/C (second compound 0.03 µM, first compound 1 µM) of 40.4%. The viability, T/C (second compound 0.03 µM, first compound 3.16 µM) was 41.8%, the viability, T/C (second compound 0.03 µM, first compound 10 µM) was 46.6% and the viability, T/C (second compound 0.0949 µM, first compound 0.0316 µM) was 25.1%. It also gave a viability, T/C (second compound 0.0949 µM, first compound 0.1 µM) of 24.1%, a viability, T/C (second compound 0.0949 µM, first compound 0.316 µM) of 22.1% and a viability, T/C (second compound 0.0949 µM, first compound 1 µM) of 28.2%. For the same compound, the viability, T/C (second compound 0.0949 µM, first compound 3.16 µM) was 23.6%, the viability, T/C (second compound 0.0949 µM, first compound 10 µM) was 25.3% and the viability, T/C (second compound 0.3 µM, first compound 0.0316 µM) was 13.1%. For the same compound, the viability, T/C (second compound 0.3 µM, first compound 0.1 µM) was 13.9%, the viability, T/C (second compound 0.3 µM, first compound 0.316 µM) was 14.4% and the viability, T/C (second compound 0.3 µM, first compound 1 µM) was 12.6%. It also gave a viability, T/C (second compound 0.3 µM, first compound 3.16 µM) of 15.6%, a viability, T/C (second compound 0.3 µM, first compound 10 µM) of 13.7% and a viability, T/C (second compound 0.949 µM, first compound 0.0316 µM) of 11.7%. The viability, T/C (second compound 0.949 µM, first compound 0.1 µM) was 12.7%, the viability, T/C (second compound 0.949 µM, first compound 0.316 µM) was 11% and the viability, T/C (second compound 0.949 µM, first compound 1 µM) was 12.4%. The viability, T/C (second compound 0.949 µM, first compound 3.16 µM) was 12.3%, the viability, T/C (second compound 0.949 µM, first compound 10 µM) was 10.5% and the viability, T/C (second compound 3 µM, first compound 0.0316 µM) was 8.99%. It also gave a viability, T/C (second compound 3 µM, first compound 0.1 µM) of 12.6%, a viability, T/C (second compound 3 µM, first compound 0.316 µM) of 12.4% and a viability, T/C (second compound 3 µM, first compound 1 µM) of 11.5%. It also gave a viability, T/C (second compound 3 µM, first compound 3.16 µM) of 8.93% and a viability, T/C (second compound 3 µM, first compound 10 µM) of 11.6%.
`C=C(F)C(=O)N1CCN(c2nc(OCC3CCCN3C)nc3c2CCN(c2cccc4cccc(Cl)c24)C3)CC1CC#N` (stereo not drawn) was tested, and the viability, T/C (compound 0.0316 µM) was 94.1% and 96.8% and 96.1%, the viability, T/C (compound 0.1 µM) was 98.8% and 93.5% and 87.2% and the viability, T/C (compound 0.316 µM) was 90.9% and 56.4% and 91.5%. For the same compound, the viability, T/C (compound 1 µM) was 97.4% and 101% and 93.5%, the viability, T/C (compound 3.16 µM) was 35.8% and 36.4% and 35.5% and the viability, T/C (compound 10 µM) was 0.31% and 0.29% and 0.27%. The IC50 (curve of compound) was 2410 nM and 2320 nM and 2350 nM.
In the case of `COc1c(OCCCN2CCOCC2)ccc2c3n(c(=NC(=O)c4cnc(N)nc4)nc12)CCN3`, the viability, T/C (compound 0.00316 µM) is reported as 64.9% and 91.3% and 71.5%, the viability, T/C (compound 0.01 µM) is reported as 50.6% and 55% and 53.8% and the viability, T/C (compound 0.0316 µM) is reported as 15.9% and 20.9% and 23.7%. The viability, T/C (compound 0.1 µM) was 6.98% and 6.83% and 7.49%, the viability, T/C (compound 0.316 µM) was 3.1% and 3.42% and 2.99% and the viability, T/C (compound 1 µM) was 1.11% and 1.4% and 0.6%. The IC50 (curve of compound) was 10.1 nM and 11.8 nM and 11.5 nM.
`NC1CCC(NC2CC2c2ccccc2)CC1` (stereo not drawn) + CNC(C)C(=O)NC1CN(S(=O)(=O)c2cccc(S(=O)(=O)N3CCC4CCC(C(=O)NC(c5ccccc5)c5ccccc5)N4C(=O)C(NC(=O)C(C)NC)C3)c2)CCC2CCC(C(=O)NC(c3ccccc3)c3ccccc3)N2C1=O was tested, and the IC50 (curve of first compound, second compound 0.01 µM) was > 100 nM, the IC50 (curve of first compound, second compound 0.0316 µM) was > 100 nM and the IC50 [1] was < 0.316 nM. For the same compound, the IC50 [2] was > 100 nM, the IC50 [3] was < 0.316 nM and the viability, T/C (second compound 0.01 µM, first compound 0.000316 µM) was 53.7%. The viability, T/C (second compound 0.01 µM, first compound 0.001 µM) was 72.9%, the viability, T/C (second compound 0.01 µM, first compound 0.00316 µM) was 72.5% and the viability, T/C (second compound 0.01 µM, first compound 0.01 µM) was 66.5%. For the same compound, the viability, T/C (second compound 0.01 µM, first compound 0.0316 µM) was 65.1%, the viability, T/C (second compound 0.01 µM, first compound 0.1 µM) was 61.5% and the viability, T/C (second compound 0.0316 µM, first compound 0.000316 µM) was 53%. For the same compound, the viability, T/C (second compound 0.0316 µM, first compound 0.001 µM) was 53.9%, the viability, T/C (second compound 0.0316 µM, first compound 0.00316 µM) was 53.5% and the viability, T/C (second compound 0.0316 µM, first compound 0.01 µM) was 61.5%. It also gave a viability, T/C (second compound 0.0316 µM, first compound 0.0316 µM) of 53.1%, a viability, T/C (second compound 0.0316 µM, first compound 0.1 µM) of 53% and a viability, T/C [4] of 48.1%. For the same compound, the viability, T/C [5] was 54.7%, the viability, T/C [6] was 48.7% and the viability, T/C [7] was 55.5%. For the same compound, the viability, T/C [8] was 52.3%, the viability, T/C [9] was 56.1% and the viability, T/C [10] was 53.6%. It also gave a viability, T/C [11] of 54%, a viability, T/C [12] of 52.6% and a viability, T/C [13] of 53.1%. For the same compound, the viability, T/C [14] was 53.6%, the viability, T/C [15] was 59.4% and the viability, T/C [16] was 43.8%. The viability, T/C [17] was 50.9%, the viability, T/C [18] was 42.6% and the viability, T/C [19] was 44.8%. For the same compound, the viability, T/C [20] was 50.2% and the viability, T/C [21] was 56%.
With `NC1CCC(NC2CC2c2ccccc2)CC1` (stereo not drawn) the viability, T/C (compound 0.000316 µM) was 135% and 130% and 96.5%, the viability, T/C (compound 0.001 µM) was 134% and 133% and 98% and the viability, T/C (compound 0.00316 µM) was 124% and 114% and 102%. The viability, T/C (compound 0.01 µM) was 120% and 114% and 103%, the viability, T/C (compound 0.0316 µM) was 120% and 98.2% and 110% and the viability, T/C (compound 0.1 µM) was 114% and 119% and 102%. For the same compound, the IC50 (curve of compound) was > 100 nM.
For `NC1CCC(NC2CC2c2ccccc2)CC1` (stereo not drawn) + Cc1c(S(C)(=O)=O)c(-c2cc(F)cc(N3CCN(c4ccc(NS(=O)(=O)c5ccc(NC(CCN6CCC(C(=O)OCCCP(=O)(O)O)CC6)CSc6ccccc6)c(S(=O)(=O)C(F)(F)F)c5)cc4)CC3)c2)c(-c2ccc(Cl)cc2)n1C(C)C, the IC50 [1] was < 0.316 nM, the IC50 [2] was < 0.316 nM and the IC50 [3] was < 0.316 nM. The IC50 (curve of first compound, second compound 3.16 µM) was < 0.316 nM, the IC50 (curve of first compound, second compound 10 µM) was < 0.316 nM and the viability, T/C [4] was 13.1%. For the same compound, the viability, T/C [5] was 13.2%, the viability, T/C [6] was 10.9% and the viability, T/C [7] was 10.2%. For the same compound, the viability, T/C [8] was 12.5%, the viability, T/C [9] was 11.2% and the viability, T/C [10] was 10.4%. It also gave a viability, T/C [11] of 9.84%, a viability, T/C [12] of 8.02% and a viability, T/C [13] of 8.28%. For the same compound, the viability, T/C [14] was 8.54%, the viability, T/C [15] was 8.22% and the viability, T/C [16] was 6.65%. The viability, T/C [17] was 6.65%, the viability, T/C [18] was 6.88% and the viability, T/C [19] was 4.85%. For the same compound, the viability, T/C [20] was 5.16%, the viability, T/C [21] was 5.77% and the viability, T/C (second compound 3.16 µM, first compound 0.000316 µM) was 4.21%. The viability, T/C (second compound 3.16 µM, first compound 0.001 µM) was 3.65%, the viability, T/C (second compound 3.16 µM, first compound 0.00316 µM) was 3.75% and the viability, T/C (second compound 3.16 µM, first compound 0.01 µM) was 3.61%. The viability, T/C (second compound 3.16 µM, first compound 0.0316 µM) was 3.49%, the viability, T/C (second compound 3.16 µM, first compound 0.1 µM) was 4.43% and the viability, T/C (second compound 10 µM, first compound 0.000316 µM) was 2.72%. For the same compound, the viability, T/C (second compound 10 µM, first compound 0.001 µM) was 3.65%, the viability, T/C (second compound 10 µM, first compound 0.00316 µM) was 3% and the viability, T/C (second compound 10 µM, first compound 0.01 µM) was 2.12%. For the same compound, the viability, T/C (second compound 10 µM, first compound 0.0316 µM) was 2.21% and the viability, T/C (second compound 10 µM, first compound 0.1 µM) was 2.07%.
In the case of `NC(=O)C(=Cn1cnc(-c2cc(C(F)(F)F)cc(C(F)(F)F)c2)n1)c1cncnc1`, the viability, T/C (compound 0.000949 µM) is reported as 85.9% and 82.9% and 85.5%, the viability, T/C (compound 0.003 µM) is reported as 93.2% and 85.7% and 79.2% and the viability, T/C (compound 0.00949 µM) is reported as 92.8% and 63.3% and 67.5%. The viability, T/C (compound 0.03 µM) was 53.9% and 57.6% and 61%, the viability, T/C (compound 0.0949 µM) was 40.6% and 46.8% and 52.6% and the viability, T/C (compound 0.3 µM) was 32.3% and 31.4% and 34.7%. The IC50 (curve of compound) was 38.8 nM and 58.3 nM and 88.7 nM.

Reference: PubChem BioAssay AID1963431 (Molecular Pharmacology Branch, DTP, NCI, 2024)
